Converted amounts (≈) assume the structure as drawn. The source made the active and inactive calls. The calls are words filed in the database; no cut-off is given here.
Experiments:
[1] = test system: Streptomyces coelicolor; test: Antimicrobial activity against paromomycin-resistant Streptomyces coelicolor 92G harboring rpsL gene with inserted glycine at position 92 after 48 hrs; format: functional
[2] = test system: Streptomyces coelicolor; test: Antimicrobial activity against paromomycin-resistant Streptomyces coelicolor SP2 harboring rpsL K88E mutant gene and inserted glycine at position 92 of the gene after 48 hrs; format: functional
[3] = test system: Streptomyces coelicolor; test: Antimicrobial activity against Streptomyces coelicolor 1147 after 48 hrs; format: functional
[4] = test system: Streptomyces coelicolor; test: Antimicrobial activity against paromomycin-resistant Streptomyces coelicolor KO-347 harboring rpsl P91S mutant gene after 48 hrs; format: functional
[5] = test system: Streptomyces coelicolor; test: Antimicrobial activity against paromomycin-resistant Streptomyces coelicolor SP1 harboring rpsL A262G and C271T mutant gene after 48 hrs; format: functional
[6] = test system: Streptomyces coelicolor; test: Antimicrobial activity against streptomycin-resistant Streptomyces coelicolor KO-178 harboring rpsL K88E mutant gene after 48 hrs; format: functional
[7] = test system: Streptomyces coelicolor; test: Binding affinity to Streptomyces coelicolor KO-347 30S ribosomal ptotein S12 GI92 mutant assessed as inhibition of protein synthesis at 0.2 ug/ml by fluorescence assay
[8] = test system: Streptomyces coelicolor; test: Binding affinity to Streptomyces coelicolor KO-178 30S ribosomal protein S12 K88E mutant assessed as inhibition of protein synthesis at 0.2 ug/ml by fluorescence assay
[9] = molecular target: T1, Small ribosomal subunit protein uS12 (Streptomyces coelicolor (strain ATCC BAA-471 / A3(2) / M145)) (UniProt P0A4A3); test: Binding affinity to Streptomyces coelicolor 1147 30S ribosomal protein S12 assessed as inhibition of protein synthesis at 0.2 ug/ml by fluorescence assay
T1 sequence (whole entry): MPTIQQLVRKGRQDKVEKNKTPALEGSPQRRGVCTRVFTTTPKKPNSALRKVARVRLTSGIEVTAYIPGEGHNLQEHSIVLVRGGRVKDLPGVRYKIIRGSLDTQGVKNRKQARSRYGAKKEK

[10] = Streptomyces coelicolor, 1147, 48 h

| Molecule | MIC [1] | MIC ([2]; SP2, 48 h) | MIC [3, 10] | MIC ([4]; KO-347, 48 h) | MIC ([5]; SP1, 48 h) | MIC ([6]; KO-178, 48 h) | inhibition [7] | inhibition [8] | inhibition [9] | MIC [2] | MIC [3] | MIC [4] | MIC [5] | MIC [6] |
| --- | --- | --- | --- | --- | --- | --- | --- | --- | --- | --- | --- | --- | --- | --- |
| NC[C@@H]1O[C@H](O[C@H]2[C@@H](O)[C@H](O[C@@H]3[C@@H](O)[C@H](N)C[C@H](N)[C@H]3O[C@H]3O[C@H](CN)[C@@H](O)[C@H](O)[C@H]3N)O[C@@H]2CO)[C@H](N)[C@@H](O)[C@@H]1O [FRAMYCETIN] | 0.5 µg/mL (≈ 0.813 µM) | 0.2 µg/mL (≈ 0.325 µM) | 0.3 µg/mL (≈ 0.488 µM) | 0.5 µg/mL (≈ 0.813 µM) | 0.2 µg/mL (≈ 0.325 µM) | 0.8 µg/mL (≈ 1.3 µM) | – | – | – | – | – | – | – | – |
| CC(=O)O[C@H]1C[C@@]2(C)[C@@H](C[C@@H](O)[C@H]3[C@@]4(C)CC[C@@H](O)[C@@H](C)[C@@H]4CC[C@@]32C)/C1=C(\CCC=C(C)C)C(=O)O [FUSIDIC ACID] | 50 µg/mL (≈ 96.8 µM) | 20 µg/mL (≈ 38.7 µM) | 50 µg/mL (≈ 96.8 µM) | 50 µg/mL (≈ 96.8 µM) | 20 µg/mL (≈ 38.7 µM) | 50 µg/mL (≈ 96.8 µM) | – | – | – | – | – | – | – | – |
| CN[C@@H]1[C@@H](O)[C@@H](O[C@@H]2[C@@H](O)[C@H](O[C@H]3O[C@H]([C@@H](C)O)[C@@H](O)[C@H](O)[C@H]3N)[C@@H](N)C[C@H]2N)OC[C@]1(C)O [GENETICIN] | 1 µg/mL (≈ 2.01 µM) | 0.5 µg/mL (≈ 1.01 µM) | 0.3 µg/mL (≈ 0.604 µM) | 0.3 µg/mL (≈ 0.604 µM) | 0.5 µg/mL (≈ 1.01 µM) | 0.3 µg/mL (≈ 0.604 µM) | – | – | – | – | – | – | – | – |
| NC[C@H]1O[C@H](O[C@H]2[C@H](O)[C@@H](O[C@H]3O[C@H](CO)[C@@H](O)[C@H](N)[C@H]3O)[C@H](N)C[C@@H]2N)[C@H](O)[C@@H](O)[C@@H]1O [KANAMYCIN] | 1 µg/mL (≈ 2.06 µM) | 0.5 µg/mL (≈ 1.03 µM) | 0.8 µg/mL (≈ 1.65 µM) | 0.5 µg/mL (≈ 1.03 µM) | 0.5 µg/mL (≈ 1.03 µM) | 0.8 µg/mL (≈ 1.65 µM) | – | – | – | – | – | – | – | – |
| CCC[C@@H]1C[C@@H](C(=O)N[C@@H]([C@H]2O[C@H](SC)[C@H](O)[C@@H](O)[C@H]2O)[C@@H](C)O)N(C)C1 [LINCOMYCIN] | 20 µg/mL (≈ 49.2 µM) | 10 µg/mL (≈ 24.6 µM) | 50 µg/mL (≈ 123 µM) | 50 µg/mL (≈ 123 µM) | 40 µg/mL (≈ 98.4 µM) | 40 µg/mL (≈ 98.4 µM) | – | – | – | – | – | – | – | – |
| NC[C@@H]1O[C@H](O[C@H]2[C@@H](O)[C@H](O[C@@H]3[C@@H](O)[C@H](N)C[C@H](N)[C@H]3O[C@H]3O[C@H](CO)[C@@H](O)[C@H](O)[C@H]3N)O[C@@H]2CO)[C@H](N)[C@@H](O)[C@@H]1O [PAROMOMYCIN] | 2 µg/mL (≈ 3.25 µM) | 3 µg/mL (≈ 4.87 µM) | 0.1 µg/mL (≈ 0.162 µM) | 0.8 µg/mL (≈ 1.3 µM) | 2 µg/mL (≈ 3.25 µM) | 0.3 µg/mL (≈ 0.487 µM) | inactive | > 80% | 80% | – | – | – | – | – |
| CN[C@@H]1[C@H](O[C@H]2[C@H](O[C@H]3[C@H](O)[C@@H](O)[C@H](N=C(N)N)[C@@H](O)[C@@H]3N=C(N)N)O[C@@H](C)[C@]2(O)C=O)O[C@@H](CO)[C@H](O)[C@H]1O [STREPTOMYCIN] | 20 µg/mL (≈ 34.4 µM) | > 200 µg/mL | 1 µg/mL (≈ 1.72 µM) | 20 µg/mL (≈ 34.4 µM) | 200 µg/mL (≈ 344 µM) | 100 µg/mL (≈ 172 µM) | – | – | – | – | – | – | – | – |
| CN(C)[C@@H]1C(O)=C(C(N)=O)C(=O)[C@@]2(O)C(O)=C3C(=O)c4c(O)cccc4[C@@](C)(O)[C@H]3C[C@@H]12 [TETRACYCLINE] | 10 µg/mL (≈ 22.5 µM) | 3 µg/mL (≈ 6.75 µM) | 10 µg/mL (≈ 22.5 µM) | 5 µg/mL (≈ 11.3 µM) | 3 µg/mL (≈ 6.75 µM) | 10 µg/mL (≈ 22.5 µM) | – | – | – | – | – | – | – | – |
| GENTAMICIN | 0.5 µg/mL | – | – | – | – | – | – | – | – | 0.5 µg/mL | 0.1 µg/mL | 0.5 µg/mL | 0.5 µg/mL | 0.1 µg/mL |

Reference: ChEMBL document CHEMBL1629651, “A novel insertion mutation in Streptomyces coelicolor ribosomal S12 protein results in paromomycin resistance and antibiotic overproduction” (2009)
